Results reported in US7713696B2, “Genetic markers for prognosis of antifolate treatment efficacy” (Academisch Zeikenhuis Leiden H.O.D.N. Lumc, priority 2006, dated 2010).

Tested on: recent-onset RA patients
Experiment: Clinical response to methotrexate monotherapy (DAS) in genotyped patients of the BeSt trial
Assay type: in vivo, human
Conditions: for Good clinical response at six months, number of patients / Good clinical response at six months, percentage of patients: DAS≦2.4
Text: The 247 patients enrolled in the study was a sub-cohort of 508 patients participating in the BeSt trial (25). Inclusion criteria for this trial were fulfilment of the American College of Rheumatology (ACR) 1987 criteria, age of 18 years or older, a disease duration of less than 2 years. All patients had to have an active disease defined as ≧6/66 swollen joints and ≧6/68 tender joints and either an ESR ≧28 mm/hr or a Visual Analogue Scale (VAS) for global health ≦20 mm (on a scale of 0-100, 0=worst, 100=best).
The BeSt trial is a randomized, multi-centre, single-blinded, clinical study comparing the clinical efficacy of four different treatment strategies in early rheumatoid arthritis; sequential monotherapy (n=126 starting with methotrexate), step-up to combination therapy with sulphasalazine (n=121 starting with methotrexate), initial combination therapy with methotrexate, sulphasalazine and a high tapered dose of prednisolone (n=133) or initial biologic therapy with infliximab and methotrexate (n=128). In the present study, only patients allocated to initial single use of methotrexate were selected (n=247).
The primary objective of treatment in the BeSt study was achieving good clinical response as defined by the DAS≦2.4 (26-28). The DAS is a validated composite outcome measure consisting of the Ritchie articular index (RAI), the number of swollen joints (SJC, out of 44), general well being as indicated by the patient on a visual analogue scale (VAS), and the Erythrocyte Sedimentation Rate (ESR). A research nurse who remained blinded for the allocated treatment group scored the DAS every three months.
All selected patients started with oral methotrexate 7.5 mg weekly, increased to 15 mg weekly after 4 weeks, combined with folic acid (1 mg per day). In case of insufficient clinical response at three months of follow-up (DAS>2.4), the dosage was increased stepwise to 25 mg weekly, either orally or parenterally as decided by the rheumatologist. If the clinical response remained insufficient with methotrexate 25 mg weekly, patients were treated according to the next step of the BeSt protocol; patients with methotrexate sequential monotherapy switched to sulphasalazine 1000 mg twice daily; patients with initial step-up combination therapy, sulphasalazine 1000 mg twice daily was added to methotrexate. Concomitant therapies with nonsteroidal anti-inflammatory drugs (NSAIDs), as well as intra-articular injections with corticosteroids, were allowed for all treatment groups. For current analysis, clinical data for the first six months of follow-up were used, representing methotrexate treatment only.
“Responders” were defined as patients with DAS ≦2.4 (good clinical response) based on EULAR response criteria (26-28) and ‘non-responders ’ as patients with DAS >2.4 at six months of follow up.
Differences in baseline characteristics were analysed by Student's t-test for continuous variables or Chi-square test for dichotomous variables. Differences in genotype distribution for response and toxicity were tested by 3 by 2 cross tabs for each genotype, and by 2 by 2 cross tabs for carriers versus non-carriers analysis with the two-sided Chi-square test. We used binary logistic analysis in case of differences in genotype distribution, to calculate odds ratios for achieving good response or experiencing adverse drug events. Age and gender were identified as possible confounders and were used as covariates in all regression analyses. The primary efficacy endpoint was good clinical response at six months (DAS≦2.4). DAS good clinical response status required patients to be present at a given time point; no values were carried forward. Secondary endpoints were good clinical improvement defined as change in DAS>1.2 (ΔDAS>1.2) and moderate clinical improvement defined as change in DAS>0.6 (ΔDAS>0.6). […]

Structure (SMILES): CN(Cc1cnc2nc(N)nc(N)c2n1)c1ccc(C(=O)N[C@@H](CCC(=O)O)C(=O)O)cc1 [methotrexate]
- Good clinical response, Methotrexate 15 mg weekly, number of responders/patients (AMPD1 CC genotype, six months): 25/36
- Good clinical response, Methotrexate 15 mg weekly, percentage (AMPD1 CC genotype, six months): (69%)
- Good clinical response, Methotrexate 25 mg weekly, number of responders/patients (AMPD1 CC genotype, six months): 30/98
- Good clinical response, Methotrexate 25 mg weekly, percentage (AMPD1 CC genotype, six months): (31%)
- Good clinical response at six months, number of patients (AMPD1 CC genotype): 57
- Good clinical response at six months, percentage of patients (AMPD1 CC genotype): (38%)
- good clinical response percentage at 6 months (AMPD1 CC genotyped patients): 42%
- Good clinical response, Methotrexate 15 mg weekly, number of responders/patients (AMPD1 CT genotype, six months): 15/15
- Good clinical response, Methotrexate 15 mg weekly, percentage (AMPD1 CT genotype, six months): (100%)
- Good clinical response, Methotrexate 25 mg weekly, number of responders/patients (AMPD1 CT genotype, six months): 13/29
- Good clinical response, Methotrexate 25 mg weekly, percentage (AMPD1 CT genotype, six months): (45%)
- Good clinical response at six months, number of patients (AMPD1 CT genotype): 28
- Good clinical response at six months, percentage of patients (AMPD1 CT genotype): (56%)
- percentage of good clinical response at six months (AMPD1 T-allele and ATIC CC (n=22)): 68
- percentage of good clinical response at six months (AMPD1 T-allele and ITPA CC (n=41)): 63
- times more likely to achieve good clinical response (AMPD1 T-allele carriers compared to AMPD1 CC, six months): 2.1 times
- good clinical response percentage at 6 months (AMPD1 T-allelic carriers): 60%
- Good clinical response, Methotrexate 15 mg weekly, number of responders/patients (AMPD1 TT genotype, six months): 1/1
- Good clinical response, Methotrexate 15 mg weekly, percentage (AMPD1 TT genotype, six months): (100%)
- Good clinical response, Methotrexate 25 mg weekly, number of responders/patients (AMPD1 TT genotype, six months): 0/2
- Good clinical response, Methotrexate 25 mg weekly, percentage (AMPD1 TT genotype, six months): (0%)
- Good clinical response at six months, number of patients (AMPD1 TT genotype): 1
- Good clinical response at six months, percentage of patients (AMPD1 TT genotype): (33%)
- percentage of good clinical response at six months (ATIC CC and ITPA CC (n=82)): 56
- patients in remission (DAS <1.6) at one-year of follow-up (ATIC CC genotype (n=97)): 35%
- Good clinical response, Methotrexate 15 mg weekly, number of responders/patients (ATIC CC genotype, six months): 22/25
- Good clinical response, Methotrexate 15 mg weekly, percentage (ATIC CC genotype, six months): (88%)
- Good clinical response, Methotrexate 25 mg weekly, number of responders/patients (ATIC CC genotype, six months): 28/61
- Good clinical response, Methotrexate 25 mg weekly, percentage (ATIC CC genotype, six months): (46%)
- Good clinical response at six months, number of patients (ATIC CC genotype): 51
- Good clinical response at six months, percentage of patients (ATIC CC genotype): (53%)
- good clinical response percentage at 6 months (ATIC CC patients): 58%
- Good clinical response, Methotrexate 15 mg weekly, number of responders/patients (ATIC CG genotype, six months): 15/22
- Good clinical response, Methotrexate 15 mg weekly, percentage (ATIC CG genotype, six months): (68%)
- Good clinical response, Methotrexate 25 mg weekly, number of responders/patients (ATIC CG genotype, six months): 14/60
- Good clinical response, Methotrexate 25 mg weekly, percentage (ATIC CG genotype, six months): (23%)
- Good clinical response at six months, number of patients (ATIC CG genotype): 30
- Good clinical response at six months, percentage of patients (ATIC CG genotype): (33%)
- good clinical response percentage at 6 months (ATIC G-allelic carriers): 37%
- Good clinical response, Methotrexate 15 mg weekly, number of responders/patients (ATIC GG genotype, six months): 4/5
- Good clinical response, Methotrexate 15 mg weekly, percentage (ATIC GG genotype, six months): (80%)
- Good clinical response, Methotrexate 25 mg weekly, number of responders/patients (ATIC GG genotype, six months): 2/9
- Good clinical response, Methotrexate 25 mg weekly, percentage (ATIC GG genotype, six months): (22%)
- Good clinical response at six months, number of patients (ATIC GG genotype): 6
- Good clinical response at six months, percentage of patients (ATIC GG genotype): (38%)
- good clinical response percentage at 6 months (ITPA A-allelic carriers): 26%
- Good clinical response, Methotrexate 15 mg weekly, number of responders/patients (ITPA CA genotype, six months): 3/5
